Test results as given in US20050130252A1, “Stabilized susceptibility tests of aerobic pathogens” (Wyeth Holdings Corporation, priority 2003, published 2005).
Values after ≈ are worked out from the molar mass of the structure shown. Read-outs that look alike come from different tables or passages of the source.

Experiments:
Test in all cases: Broth microdilution MIC
Format in all cases: cell-based
[1] = tested on: Enterococcus faecalis GC2242 Vancomycin-Resistant; settings: for In Vitro Activity of Tigecycline: Broth, E. faecalis GC2242 Vancomycin-Resistant; for MIC: Enterococcus faecalis, read-out: Minimal Inhibitory Concentration
Description: (§1) The process for preparing susceptibility test medium are the following steps: • a. Preparing Mueller Hinton Broth II medium by adding 22 grams powdered media to 1.0 liter distilled water; • b. Autoclaving (121° C., 15 psi, 15 minutes) and cooling the medium; • c. Adding Oxyrase® up to about 10% final volume and keeping at 35-37° C. in an incubator for 30 minutes; • d. Adding about 50 μL to each well of a 96 well microtiter plate; • e. Weighing drug and adding broth to drug to bring up to about (standard 128 μg/ml); • f. Adding 50 μL of the drug to the first column of the titer plate; • g. Diluting by two-fold serial diluting across or down the plate. • h. Preparing a Prompt™ inoculum at 10^8 CFU/ml; • i. Diluting inoculum 1:100 in the broth at […] in 9.9 ml (1:100) is 10^6 colony forming units (CFU) forming the adjusted inoculum; • j. Adding 50 μL of the adjusted inoculum to the wells of the microtiter plate; • k. Incubating the plates at 35-37° C. for 18-22 hours; and • l. Reading, with the unaided eye, the MIC.
(§2) The in vitro activities of tigecycline and control antibiotics were determined by the broth microdilution method as recommended by the NCCLS. (National Committee for Clinical Laboratory Standards, 2003. Methods for Dilution Antimicrobial Susceptibility Tests for Bacteria That Grow Aerobically; Approved Standards: M7-A6, Sixth ed, vol. 23., National Committee for Clinical Laboratory Standards Wayne, Pa.) was used for the standard procedures. MBH with 5% lysed horse blood was used for testing S. pneumoniae and Haemophilus Test Medium was used for testing H. influenzae. Oxyrase® (Oxyrase Inc, Mansfield, Ohio) was used according to the manufacturer's instructions by adding 1 ml of Oxyrase® to 50 ml of media. Media age studies were performed by preparing MHB in multiple flasks, then storing the media under various conditions. MICs were usually performed in duplicate on each day of testing. Storage under anaerobic conditions was conducted in an anaerobic chamber (MACS MG 1000, Don Whitley Scientific LTD). The pH of the media was determined by pH meter (Corning 430). A comparison of the in vitro activity of tigecycline by agar and broth dilution methodolgies with and without Oxyrase® against clinical isolates is shown in Table 1.

[2] = tested on: M. catarrhalis GC6907 (Clinical); settings: Moraxella catarrhalis, read-out: Minimal Inhibitory Concentration
Description: as §1, §2

[3] = tested on: Escherichia coli GC2203 ATCC Control; settings: for In Vitro Activity of Tigecycline: Broth, E. coli GC2203 ATCC Control; for MIC: Escherichia coli, E. coli GC2203 (ATCC Control), read-out: Minimal Inhibitory Concentration
Description: as §1, §2

[4] = tested on: Staphylococcus aureus GC1131 Clinical isolate; settings: for In Vitro Activity of Tigecycline: Broth, S. aureus GC1131; for MIC: Staphylococcus aureus, S. aureus GC1131 (Clinical), read-out: Minimal Inhibitory Concentration
Description: as §1, §2

[5] = tested on: S. pneumoniae ATCC 49619
Description: as §1, §2

[6] = tested on: Enterococcus faecalis GC2267 tet(L) + (M) + (S); settings: for In Vitro Activity of Tigecycline: Broth, E. faecalis GC2267 tet(L) + (M) + (S); for MIC: Enterococcus faecalis, read-out: Minimal Inhibitory Concentration
Description: as §1, §2

[7] = tested on: H. influenzae GC6896 (ATCC Control); settings: Haemophilus influenzae, read-out: Minimal Inhibitory Concentration
Description: as §1, §2

[8] = tested on: Candida albicans GC3066 ATCC Control; settings: for In Vitro Activity of Tigecycline: Broth, C. albicans GC3066 ATCC Control; for MIC: Candida albicans, C. albicans GC3066 ATCC (Control), read-out: Minimal Inhibitory Concentration
Description: as §1, §2

[9] = tested on: Staphylococcus aureus GC4536 Smith MP -In Vivo; settings: for In Vitro Activity of Tigecycline: Broth, S. aureus GC4536 Smith; for MIC: Staphylococcus aureus, S. aureus GC4536 (Smith MP - In Vivo), read-out: Minimal Inhibitory Concentration
Description: as §1, §2

[10] = tested on: Staphylococcus aureus GC6466 Clinical - tet(M); settings: for In Vitro Activity of Tigecycline: Broth, S. aureus GC6466 tet(M); for MIC: Staphylococcus aureus, read-out: Minimal Inhibitory Concentration
Description: as §1, §2

[11] = tested on: Staphylococcus aureus GC2216 ATCC Control; settings: for In Vitro Activity of Tigecycline: Broth, S. aureus GC2216 ATCC Control; for MIC: Staphylococcus aureus, S. aureus GC2216 (ATCC Control), read-out: Minimal Inhibitory Concentration
Description: as §1, §2

[12] = tested on: Escherichia coli GC2270 tet(M); settings: for MIC: Escherichia coli, read-out: Minimal Inhibitory Concentration
Description: as §1, §2

[13] = tested on: Escherichia coli GC1073 tet(B) wt; settings: for In Vitro Activity of Tigecycline: Broth, E. coli GC1073 tet(B) wt
Description: as §1, §2

[14] = tested on: Enterococcus faecalis GC4555 ATCC Control; settings: for In Vitro Activity of Tigecycline: Broth, E. faecalis GC4555 ATCC Control; for MIC: Enterococcus faecalis, E. faecalis GC4555 (ATCC Control), read-out: Minimal Inhibitory Concentration
Description: as §1, §2

[15] = 336 h, Aged Media (two weeks at RT)
[16] = Table 8, Mueller Hinton Broth + Oxyrase, n = 240
[17] = Table 8, Mueller Hinton Broth, n = 320

## CN(C)c1cc(NC(=O)CNC(C)(C)C)c(O)c2c1C[C@H]1C[C@H]3[C@H](N(C)C)C(O)=C(C(N)=O)C(=O)[C@@]3(O)C(O)=C1C2=O [Tigecycline, tigecycline]
[1]; Oxyrase (2%)
  In Vitro Activity of Tigecycline: 0.12
[1]; no Oxyrase
  In Vitro Activity of Tigecycline: 0.50
[1]; 336 h
  MIC: 0.12 µg/mL (≈ 0.205 µM)
[1]
  MIC: 0.06 µg/mL (≈ 0.102 µM)
[2]; [15]
  MIC: 0.03 µg/mL (≈ 0.0512 µM)
[2]; Fresh Media
  MIC: 0.015 µg/mL (≈ 0.0256 µM)
[3]; Oxyrase (2%)
  In Vitro Activity of Tigecycline: 0.12
[3]; no Oxyrase
  In Vitro Activity of Tigecycline: 0.25
[3]; [15]
  MIC: 0.12 µg/mL (≈ 0.205 µM)
[3]; Fresh Media
  MIC: 0.03 µg/mL (≈ 0.0512 µM)
[4]; Oxyrase (2%)
  In Vitro Activity of Tigecycline: 0.25
[4]; no Oxyrase
  In Vitro Activity of Tigecycline: 0.50
[4]; [15]
  MIC: 0.25 µg/mL (≈ 0.427 µM)
[4]; Fresh Media
  MIC: 0.25 µg/mL (≈ 0.427 µM)
[5]; [16]
  Number of Occurrences of MIC 0.004 ug/ml: 6
  Number of Occurrences of MIC 0.008 ug/ml: 73
  Number of Occurrences of MIC 0.016 ug/ml: 137
  Number of Occurrences of MIC 0.03 ug/ml: 21
  Number of Occurrences of MIC 0.06 ug/ml: 3
[5]; [17]
  Number of Occurrences of MIC 0.016 ug/ml: 1
  Number of Occurrences of MIC 0.03 ug/ml: 54
  Number of Occurrences of MIC 0.06 ug/ml: 188
  Number of Occurrences of MIC 0.12 ug/ml: 48
  Number of Occurrences of MIC 0.25 ug/ml: 29
[6]; Oxyrase (2%)
  In Vitro Activity of Tigecycline: 0.12
[6]; no Oxyrase
  In Vitro Activity of Tigecycline: 0.50
[6]; 336 h
  MIC: 0.25 µg/mL (≈ 0.427 µM)
[6]
  MIC: 0.12 µg/mL (≈ 0.205 µM)
[7]; [15]
  MIC: 0.5 µg/mL (≈ 0.854 µM)
[7]; Fresh Media
  MIC: 0.25 µg/mL (≈ 0.427 µM)
[8]; Oxyrase (2%)
  In Vitro Activity of Tigecycline: >16
[8]; no Oxyrase
  In Vitro Activity of Tigecycline: >16
[8]; [15]
  MIC: > 8 µg/mL
[8]; Fresh Media
  MIC: > 8 µg/mL
[9]; Oxyrase (2%)
  In Vitro Activity of Tigecycline: 0.12
[9]; no Oxyrase
  In Vitro Activity of Tigecycline: 0.50
[9]; [15]
  MIC: 0.25 µg/mL (≈ 0.427 µM)
[9]; Fresh Media
  MIC: 0.12 µg/mL (≈ 0.205 µM)
[10]; Oxyrase (2%)
  In Vitro Activity of Tigecycline: 0.12
[10]; no Oxyrase
  In Vitro Activity of Tigecycline: 0.50
[10]; 336 h
  MIC: 0.25 µg/mL (≈ 0.427 µM)
[10]
  MIC: 0.12 µg/mL (≈ 0.205 µM)
[11]; Oxyrase (2%)
  In Vitro Activity of Tigecycline: 0.12
[11]; no Oxyrase
  In Vitro Activity of Tigecycline: 0.50
[11]; [15]
  MIC: 0.25 µg/mL (≈ 0.427 µM)
[11]; Fresh Media
  MIC: 0.12 µg/mL (≈ 0.205 µM)
[12]; Broth, no Oxyrase, E. coli GC2270 tet(M)
  In Vitro Activity of Tigecycline: 0.50
[12]; 336 h
  MIC: 0.25 µg/mL (≈ 0.427 µM)
[12]
  MIC: 0.06 µg/mL (≈ 0.102 µM)
[13]; Oxyrase (2%)
  In Vitro Activity of Tigecycline: 0.12
[13]; no Oxyrase
  In Vitro Activity of Tigecycline: 0.50
[13]; Escherichia coli, read-out: Minimal Inhibitory Concentration
  MIC: 0.12 µg/mL (≈ 0.205 µM)
[14]; Oxyrase (2%)
  In Vitro Activity of Tigecycline: 0.06
[14]; no Oxyrase
  In Vitro Activity of Tigecycline: 0.50
[14]; [15]
  MIC: 0.25 µg/mL (≈ 0.427 µM)
[14]; Fresh Media
  MIC: 0.03 µg/mL (≈ 0.0512 µM)
